In patent US12492173B2, “Herbicidal substituted N-tetrazolyl aryl carboxamides” (Bayer Aktiengesellschaft, priority 2019, dated 2025):

Legend:
Assay type in all cases: in vivo
Lolium rigidum = assay: Pre-emergence herbicidal action, LOLRI; details: dosage 320 g/ha, scored visually after 3 weeks vs untreated controls (100% = plants have died)
Description: 1. Pre-Emergence Herbicidal Action Against Harmful Plants Seeds of monocotyledonous and dicotyledonous weed plants and crop plants are laid out in sandy loam soil in wood-fiber pots and covered with soil. The compounds of the invention, formulated in the form of wettable powders (WP) or as emulsion concentrates (EC), are then applied to the surface of the covering soil in the form of an aqueous suspension or emulsion at a water application rate equating to 600 to 800 l/ha, with addition of 0.2% wetting agent. After the treatment, the pots are placed in a greenhouse and kept under good growth conditions for the trial plants. The damage to the test plants is scored visually after a test period of 3 weeks by comparison with untreated controls (herbicidal activity in percent (%): 100% activity=the plants have died, 0% activity=like control plants). […] The tables below illustrate, in an exemplary manner, the […] herbicidal action of the compounds according to the invention, the herbicidal activity being stated in percent. [table] In the experiments that follow, herbicidal action of numerous inventive compounds and the known compounds that are structurally closest from D1 (WO 2012/028579 A1) and D2 (WO 2018/202535 A1) were compared under the above-specified conditions by the pre-emergence and post-emergence method. The example numbers given in the tables relate to the compounds disclosed in the respective documents. In addition to the compounds disclosed in D1 and D2, the following compounds V-1 to V-14 that are encompassed by D1 or D2 but are not compounds specified therein were used in the comparative experiments: • V-1: 2-(methylsulfanyl)-3-(methylsulfinyl)-N-(1-methyl-1H-tetrazol-5-yl)-4-(trifluoromethyl)benzamide • V-2: 2-(methylsulfanyl)-3-(methylsulfonyl)-N-(1-methyl-1H-tetrazol-5-yl)-4-(trifluoromethyl)benzamide • V-3: 2,3-bis(ethylsulfanyl)-N-(1-methyl-1H-tetrazol-5-yl)-4-(trifluoromethyl)benzamide • V-4: 2-chloro-3-(ethylsulfanyl)-N-(1-methyl-1H-tetrazol-5-yl)-4-(trifluoromethyl)benzamide • V-5: 2-chloro-4-iodo-3-(methylsulfanyl)-N-(1-methyl-1H-tetrazol-5-yl)benzamide • V-6: 2-chloro-4-iodo-3-(methylsulfinyl)-N-(1-methyl-1H-tetrazol-5-yl)benzamide • V-7: 2-chloro-4-iodo-3-(methylsulfonyl)-N-(1-methyl-1H-tetrazol-5-yl)benzamide • V-8: 2-bromo-3-(methylsulfanyl)-N-(1-methyl-1H-tetrazol-5-yl)-4-(trifluoromethyl)benzamide • V-9: 2-bromo-3-(methylsulfinyl)-N-(1-methyl-1H-tetrazol-5-yl)-4-(trifluoromethyl)benzamide • V-10: 2-bromo-3-(methylsulfonyl)-N-(1-methyl-1H-tetrazol-5-yl)-4-(trifluoromethyl)benzamide • V-11: 2-bromo-3-(ethylsulfanyl)-N-(1-methyl-1H-tetrazol-5-yl)-4-(trifluoromethyl)benzamide • V-12: 2-bromo-3-(ethylsulfinyl)-N-(1-methyl-1H-tetrazol-5-yl)-4-(trifluoromethyl)benzamide • V-13: 2-bromo-3-(ethylsulfonyl)-N-(1-methyl-1-1H-tetrazol-5-yl)-4-(trifluoromethyl)benzamide • V-14: 2-cyclopropyl-3-(ethylsulfanyl)-N-(1-methyl-1H-tetrazol-5-yl)-4-(trifluoromethyl)benzamide Herbicidal Pre-Emergence Action: […]

Alopecurus myosuroides = assay: Pre-emergence herbicidal action, ALOMY; parameters: key: % activity: 100 = plants have died, 0 = like control plants; details: comparative experiment, 20 g of a.i./ha
In short: (§1)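 Greenhouse pre-emergence test: formulated compound (WP or EC) applied in water to the soil covering sown seeds, 600–800 l/ha, 0.2% wetting agent. Scored visually in percent at 3 weeks versus untreated plants.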

Hordeum murinum [1] = assay: Post-emergence herbicidal action, HORMU; parameters: key: % herbicidal action: 100 = plants died, 0 = like control; details: Dosage 80 g/ha
Protocol: [table] 2. Post-Emergence Herbicidal Action Against Harmful Plants Seeds of monocotyledonous and dicotyledonous weed and crop plants are laid out in sandy loam soil in wood-fiber pots, covered with soil and cultivated in a greenhouse under good growth conditions. 2 to 3 weeks after sowing, the test plants are treated at the one-leaf stage. The compounds of the invention, formulated in the form of wettable powders (WP) or as emulsion concentrates (EC), are then sprayed onto the green parts of the plants in the form of an aqueous suspension or emulsion at a water application rate equating to 600 to 800 l/ha, with addition of 0.2% wetting agent. After the test plants have been left to stand in the greenhouse under optimal growth conditions for about 3 weeks, the action of the preparations is assessed visually in comparison to untreated controls (herbicidal action in percent (%): 100% activity=the plants have died, 0% activity=like control plants). […] The tables below illustrate, in an exemplary manner, the post-emergence herbicidal action of the compounds according to the invention, the herbicidal activity being stated in percent. In the experiments that follow, herbicidal action of numerous inventive compounds and the known compounds that are structurally closest from D1 (WO 2012/028579 A1) and D2 (WO 2018/202535 A1) were compared under the above-specified conditions by the pre-emergence and post-emergence method. The example numbers given in the tables relate to the compounds disclosed in the respective documents. In addition to the compounds disclosed in D1 and D2, the following compounds V-1 to V-14 that are encompassed by D1 or D2 but are not compounds specified therein were used in the comparative experiments: • V-1: 2-(methylsulfanyl)-3-(methylsulfinyl)-N-(1-methyl-1H-tetrazol-5-yl)-4-(trifluoromethyl)benzamide • V-2: 2-(methylsulfanyl)-3-(methylsulfonyl)-N-(1-methyl-1H-tetrazol-5-yl)-4-(trifluoromethyl)benzamide • V-3: 2,3-bis(ethylsulfanyl)-N-(1-methyl-1H-tetrazol-5-yl)-4-(trifluoromethyl)benzamide • V-4: 2-chloro-3-(ethylsulfanyl)-N-(1-methyl-1H-tetrazol-5-yl)-4-(trifluoromethyl)benzamide • V-5: 2-chloro-4-iodo-3-(methylsulfanyl)-N-(1-methyl-1H-tetrazol-5-yl)benzamide • V-6: 2-chloro-4-iodo-3-(methylsulfinyl)-N-(1-methyl-1H-tetrazol-5-yl)benzamide • V-7: 2-chloro-4-iodo-3-(methylsulfonyl)-N-(1-methyl-1H-tetrazol-5-yl)benzamide • V-8: 2-bromo-3-(methylsulfanyl)-N-(1-methyl-1H-tetrazol-5-yl)-4-(trifluoromethyl)benzamide • V-9: 2-bromo-3-(methylsulfinyl)-N-(1-methyl-1H-tetrazol-5-yl)-4-(trifluoromethyl)benzamide • V-10: 2-bromo-3-(methylsulfonyl)-N-(1-methyl-1H-tetrazol-5-yl)-4-(trifluoromethyl)benzamide • V-11: 2-bromo-3-(ethylsulfanyl)-N-(1-methyl-1H-tetrazol-5-yl)-4-(trifluoromethyl)benzamide • V-12: 2-bromo-3-(ethylsulfinyl)-N-(1-methyl-1H-tetrazol-5-yl)-4-(trifluoromethyl)benzamide • V-13: 2-bromo-3-(ethylsulfonyl)-N-(1-methyl-1-1H-tetrazol-5-yl)-4-(trifluoromethyl)benzamide • V-14: 2-cyclopropyl-3-(ethylsulfanyl)-N-(1-methyl-1H-tetrazol-5-yl)-4-(trifluoromethyl)benzamide Herbicidal Pre-Emergence Action: […]

Hordeum murinum [2] = assay: Pre-emergence herbicidal action, HORMU; details: dosage 320 g/ha, scored visually after 3 weeks vs untreated controls (100% = plants have died)
In short: as §1

Row | SMILES | herbicidal activity LOLRI (Lolium rigidum) [%] | Herbicidal action against ALOMY (Alopecurus myosuroides) | herbicidal action HORMU (Hordeum murinum [1]) | herbicidal activity HORMU (Hordeum murinum [2]) [%]
1 | C=CCSCc1c(C(F)(F)F)ccc(C(=O)Nc2nnnn2C)c1Cl [Example 1-308] | 90 | – | – | –
2 | Cn1nnnc1NC(=O)c1ccc(C(F)(F)F)c(C[S+](C)[O-])c1Br (stereo not shown) [Example 1-381] | – | 50 | – | –
3 | Cn1nnnc1NC(=O)c1ccc(C(F)(F)F)c(CS(C)(=O)=O)c1Br [Example 1-382, 2-bromo-3-[(methylsulfonyl)methyl]-N-(1-methyl-1H-tetrazol-5-yl)-4-(trifluoromethyl)benzamide] | – | 30 | – | –
4 | CCn1nnnc1NC(=O)c1ccc(C(F)(F)F)c(CS(C)(=O)=O)c1SC [Example 2-163] | – | – | 80 | –
5 | CCCn1nnnc1NC(=O)c1ccc(C(F)F)c(C[S+]([O-])CC)c1Cl (stereo not shown) [Example 3-324] | 100 | – | 80 | 100
